Reference: patent US11413348B2, “Low molecular weight cationic lipids for oligonucleotide delivery” (SIRNA THERAPEUTICS, INC., priority 2010, dated 2022)

molecular target: T1, serum ApoE (Macaca mulatta, UniProt Q28502); assay: Heparin Sepharose HI-TRAP binding assay; parameters: species or system rhesus monkey; settings: HI-TRAP binding upon rhesus serum incubation, 2×DPBS conditions
T1 construct: from tissue; host or cells: rhesus monkey serum
Protocol: Lipid nanoparticles (LNP) with neutral surface charge are not retained after injection onto heparin sepharose with 1× Dulbecco's phosphate buffered saline (DPBS) as the running buffer but elute in the column void volume. […] Lipid nanoparticles with surface bound ApoE bind to heparin sepharose with high affinity and are eluted only at high salt (1M NaCl).
Lipid nanoparticles were incubated at 37° C. for 20 min at a final siRNA concentration of 50 μg/mL with various concentrations of either purified or recombinant human apolipoprotein E or 0.1-50% rat/mouse/rhesus monkey/human serum in 1× Dulbccco's phosphate buffered saline (DPBS). After incubation with ApoE or serum LNP samples were diluted 10-fold using 1×DPBS and analyzed by heparin sepharose chromatography. Peak area of retained LNP (after subtraction of appropriate blank signals) is compared to total peak area of LNP control without ApoE and/or serum incubation to determine the percentage of the LNP which undergoes shift to high affinity heparin interaction after incubation with ApoE/serum.
A heparin sepharose HI-TRAP™ chromatography column (GE Healthcare; 1 mL bed volume) is equilibrated with either 1× or 2× Dulbecco's PBS; the higher 2× salt concentration is used for LNPs with higher intrinsic retention on heparin sepharose (presumably due to higher positive surface charge). • Mobile Phase A: 1× or 2×DPBS • Mobile Phase B: 1M NaCl in 10 mM sodium phosphate buffer, pH 7.0 • 100% A delivered isocratically for 10 min followed by step gradient to 100% B; hold for additional 10 min; step gradient back to 100% A and reequilibrate for additional 10 min prior to injection of next sample • Flow rate: 1 mL/min • Sample injection volume: 50 μL. • Detection: UV @260 nm HI-TRAP™ Binding Results Upon Rhesus Serum Incubation (2×DPBS Conditions)

T1 sequence (Q28502 19-295): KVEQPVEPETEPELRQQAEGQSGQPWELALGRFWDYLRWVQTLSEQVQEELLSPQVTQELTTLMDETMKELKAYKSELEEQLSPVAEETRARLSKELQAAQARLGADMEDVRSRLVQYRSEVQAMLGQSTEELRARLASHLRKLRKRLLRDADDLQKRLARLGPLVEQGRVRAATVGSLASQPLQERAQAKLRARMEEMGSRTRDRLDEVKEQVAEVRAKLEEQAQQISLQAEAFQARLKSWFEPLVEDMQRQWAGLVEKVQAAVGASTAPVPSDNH

| % Bound [%] | Compound |
| --- | --- |
| 58 | CCCCC/C=C\C/C=C\CCCCCCCCC1(CCCCCCCC/C=C\C/C=C\CCCCC)OCC(CCN(C)C)O1 (centres unmarked) [Compound 45, DLinKC2DMA, reference compound] |
| 7 | CCCCC/C=C\C/C=C\CCCCCCCCC(CCCCCCCC/C=C\C/C=C\CCCCC)OC(=O)CCCN(C)C [Compound 46, MC3, reference compound] |

test system: mRNA transcript for the firefly (Photinus pyralis) luciferase gene; assay: Mouse in vivo evaluation of efficacy (luciferase siRNA LNPs, liver luminescence); settings: Luc siRNA RDV, tail vein, 48 hours post dose, FIG. 1
Protocol: LNPs utilizing Compounds 1-44, in the nominal compositions described immediately above, were evaluated for in vivo efficacy. The siRNA targets the mRNA transcript for the firefly (Photinus pyralis) luciferase gene (Accession #M15077). […] The in vivo luciferase model employs a transgenic mouse in which the firefly luciferase coding sequence is present in all cells. ROSA26-LoxP-Stop-LoxP-Luc (LSL-Luc) transgenic mice licensed from the Dana Farber Cancer Institute are induced to express the Luciferase gene by first removing the LSL sequence with a recombinant Ad-Cre virus (Vector Biolabs). Due to the organo-tropic nature of the virus, expression is limited to the liver when delivered via tail vein injection. Luciferase expression levels in liver are quantitated by measuring light output, using an IVIS imager (Xenogen) following administration of the luciferin substrate (Caliper Life Sciences). Pre-dose luminescence levels are measured prior to administration of the RDVs. Luciferin in PBS (15 mg/mL) is intraperitoneally (IP) injected in a volume of 150 μL. After a four minute incubation period mice are anesthetized with isoflurane and placed in the IVIS imager. The RDVs (containing siRNA) in PBS vehicle were tail vein injected in a volume of 0.2 mL. […] In vivo efficacy results are expressed as % inhibition of luminescence relative to pre-dose luminescence levels. […]

| Compound | efficacy (% inhibition of luminescence) compared with RDV containing octyl-CLinDMA (OCD) |
| --- | --- |
| CCCCC/C=C\C/C=C\CCCCCCCCCC(CCCCCCCCC)N(C)C (centres unmarked) [Compound 1, (20Z,23Z)—N,N-dimethylnonacosa-20,23-dien-10-amine] | Greater efficacy |

molecular target: T2, ApoE (Macaca mulatta, UniProt Q28502); assay: In vitro ApoE binding assay (anti-PEG capture, ApoE ELISA, stem-loop RT-PCR); settings: LNP 4 ug/mL in 90% rhesus serum, 37° C., 20 minutes; estimate of 500 siRNA per LNP
T2 construct: from tissue; host or cells: rhesus serum
T2 sequence (Q28502 19-295): as above
Protocol: LNPs are incubated at 37° C. in 90% rhesus serum at a final LNP concentration of 4 ug/mL. Incubation is for 20 minutes with orbital rotation. After incubation, the samples are diluted 1:20 in PBS and 100 uL of each diluted sample is aliquoted to wells of an anti-PEG antibody coated 96-well plate (Life Diagnostics Cat. No. P-0001PL. After incubation at room temperature for 1 hour, the plate is washed 5× with 300 uL PBS. After washing, 50 uL of 0.2% Triton X-100 is added to each well and the plate incubated at 37° C. for 10 minutes, followed by shaking on a plate shaker for 1 minute at 750 rpm. Samples are frozen prior to performing the ApoE ELISA and stem loop PCR analysis of samples.
An ApoE ELISA assay is performed to quantitate ApoE bound to the LNPs after incubation in rhesus serum. Anti-ApoE antibody (Milipore, Cat No. AB947) is diluted 1:1000 in PBS and 100 uL of diluted antibody is added to each well of a polystyrene high binding plate. The plate with antibody is incubated overnight at 4° C., after which the plate is washed 2× with 200 uL of PBS. Next, 200 uL of buffer containing 1% BSA and 0.05% Tween-20 in PBS (Incubation Buffer) is added to each well followed by incubation at room temperature for 1 hour. Plates are washed 5× with PBS containing 0.05% Tween-20. Frozen Triton lysis test samples are thawed and diluted 1:6 with incubation buffer and 100 uL of test sample is aliquoted to wells of the ApoE antibody plate. Incubation is for 1 hour at room temperature followed by a 5× wash with PBS containing 0.05% Tween-20. After washing, 100 uL of biotinylated anti-ApoE antibody (Mabtech, Cat. ANo. E887-biotin), diluted 1:500 in incubation buffer, is added to each well and incubated for 1 hour at room temperature, followed by a 5× wash with 0.05% Tween-20 in PBS. 100 uL per well, of Streptavidin-HPR (Thermo, Cat. No. TS-125-HR), is then added and incubated for 1 hour at room temperature. After washing 5× with 0.05% Tween-20 in PBS, 100 uL of TMB Substrate (Thermo, Cat. No. 34028) is added to each well, followed by incubation at room temperature for 20 minutes in the dark. The calorimetric reaction is slopped with 100 uL of TMB Stop Solution (KPL, Cat. No. 50-85-04) and absorbance at 450 nm is determined. An ApoE standard curve is prepared by diluting rhesus Recombinant ApoE in incubation buffer with 0.03% Triton X-100 with concentrations ranging from 100 ng/mL to 0.78 ng/mL. ApoE standards are evaluated in the ELISA in parallel to the test samples. A rhesus serum only (no LNP) control is utilized to obtain a background subtraction for non-LNP dependent ApoE signal in the ELISA.
To normalize to the ApoE bound to the amount of LNP bound to the anti-PEG antibody plate, the amount of siRNA retained in the anti-PEG antibody well is quantitated by stem-loop PCR and related to the number of siRNAs encapsulated per LNP, to give an approximate measure of total LNP particles bound per well.
The standard curve is prepared using the molecular weight of the siRNA (13693 g/mol for ApoB 17063) to calculate the copy number. The high standard should contain 10^11 copies per 3 μl. A 10-fold serial dilution is performed across a row of an assay plate until the lowest standard contains 10^2 copies per 3 μl. Dilute 0.2% Triton X-100 1:80 in water and pipette 20 uL of the diluted Triton X-100 into 10 wells of a 96 well plate. 30 uL of the serial diluted standard curve and mix are added to each well of the plate. 10 uL of the spiked standard curve is used in the reverse transcription reaction.
Triton lysates from the PEG antibody plate capture are diluted 1 to 2000 in nuclease free water. 10 uL of ‘RT-Primer Mix’ (Applied Biosystem's TaqMan MicroRNA Reverse Transcription Kit Cat. No. 4366596) is added to each well of a 96-well Micro-Amp QPCR plate (ABI Cat #N801-0560).
[…] of each test sample (diluted 1 to 2000) or spiked standard curve (above) are aliquoted into the 96-well plate. […]

| ApoE Molecules/LNP [Molecules/LNP] | Compound |
| --- | --- |
| 38 | CCCCCCCC/C=C\CCCCCCCCCCCC(CCCCCCCCC)N(C)C (centres unmarked) [Compound 29, (22Z)—N,N-dimethylhentriacont-22-en-10-amine] |
| 4.9 | CCCCC/C=C\C/C=C\CCCCCCCC(CCCCCCCCC)N(C)C (centres unmarked) [Compound 8, (18Z,21Z)—N,N-dimethylheptacosa-18,21-dien-10-amine] |
| 1.2 | CCCCCCCCCCC/C=C\CCCCC(CCCCCCCCC)N(C)C (centres unmarked) [Compound 24, (15Z)—N,N-dimethylheptacos-15-en-10-amine] |
| 4.7 | CCCCCCCC/C=C\CCCCCCCCCC(CCCCCCCCC)N(C)C (centres unmarked) [Compound 28, (20Z)—N,N-dimethylnonacos-20-en-10-amine] |

Further lines, the compound ahead of its results:

| Compound | ApoE Molecules/LNP [Molecules/LNP] |
| --- | --- |
| CCCCCCCCCC(CCCCCCCCC[C@H]1C[C@H]1CCCCCC)N(C)C (stereo partly drawn) [Compound 34, 1-[(1S,2R)-2-hexylcyclopropyl]-N,N-dimethylnonadecan-10-amine] | 2.3 |
| CCCCC/C=C\C/C=C\CCCCCCCCC1(CCCCCCCC/C=C\C/C=C\CCCCC)OCC(CCN(C)C)O1 (centres unmarked) [Compound 45, DLinKC2DMA, reference compound] | 32.5 |
| CCCCCCCCCCCCCC/C=C\CCCC(CCCCCCCCC)N(C)C (centres unmarked) [Compound 25, (14Z)—N,N-dimethylnonacos-14-en-10-amine] | 13.7 |
| CCCCC/C=C\C/C=C\CCCCCCCCCCCC(CCCCCCCC)N(C)C (centres unmarked) [Compound 16, (21Z,24Z)—N,N-dimethyltriaconta-21,24-dien-9-amine] | 3.3 |
